# System: KRAS PDC multicell spheroid viability
# Assay: Anticancer human tumor 521955-158-R6-J3-PDC patient-derived pancreatic carcinoma cell line growth inhibition [KRAS2]
# Details: for IC50: curve of first compound; for viability, T/C: stronger effect = lower value
# Method in brief: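 KRAS-mutant tumor cells were grown as spheroids with HUVEC endothelial cells and human MSCs as stroma. Targeted agents were tested alone and with KRAS pathway inhibitors. Doses started at or near clinical Cmax, or 10 microM, descending half-log.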
# [1] = second compound 0.1 µM, first compound 0.0316 µM
# [2] = second compound 0.1 µM, first compound 0.1 µM
# [3] = second compound 0.316 µM, first compound 0.0316 µM
# [4] = second compound 0.316 µM, first compound 0.1 µM
# [5] = second compound 1 µM, first compound 0.0316 µM
# [6] = second compound 1 µM, first compound 0.1 µM
# [7] = second compound 3.16 µM, first compound 0.0316 µM
# [8] = second compound 3.16 µM, first compound 0.1 µM
# [9] = second compound 10 µM, first compound 0.0316 µM
# [10] = second compound 10 µM, first compound 0.1 µM
# [11] = second compound 0.1 µM, first compound 0.316 µM
# [12] = second compound 0.1 µM, first compound 1 µM
# [13] = second compound 0.1 µM, first compound 3.16 µM
# [14] = second compound 0.1 µM, first compound 10 µM
# [15] = second compound 0.316 µM, first compound 0.316 µM
# [16] = second compound 0.316 µM, first compound 1 µM
# [17] = second compound 0.316 µM, first compound 3.16 µM
# [18] = second compound 0.316 µM, first compound 10 µM
# [19] = second compound 1 µM, first compound 0.316 µM
# [20] = second compound 1 µM, first compound 1 µM
# [21] = second compound 1 µM, first compound 3.16 µM
# [22] = second compound 1 µM, first compound 10 µM
# [23] = second compound 3.16 µM, first compound 0.316 µM
# [24] = second compound 3.16 µM, first compound 1 µM
# [25] = second compound 3.16 µM, first compound 3.16 µM
# [26] = second compound 3.16 µM, first compound 10 µM
# [27] = second compound 10 µM, first compound 0.316 µM
# [28] = second compound 10 µM, first compound 1 µM
# [29] = second compound 10 µM, first compound 3.16 µM
# [30] = second compound 10 µM, first compound 10 µM
# 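Note: drug exposure lasted seven days.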
# 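Throughout, for viability, T/C: 100% = DMSO vehicle wells and lower means fewer viable cells.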
SMILES,IC50 (second compound 0.1 µM) [nM],IC50 (second compound 0.316 µM) [nM],IC50 (second compound 1 µM) [nM],IC50 (second compound 3.16 µM) [nM],IC50 (second compound 10 µM) [nM],"viability, T/C [1] [%]","viability, T/C [2] [%]","viability, T/C [3] [%]","viability, T/C [4] [%]","viability, T/C [5] [%]","viability, T/C [6] [%]","viability, T/C [7] [%]","viability, T/C [8] [%]","viability, T/C [9] [%]","viability, T/C [10] [%]","viability, T/C [11] [%]","viability, T/C [12] [%]","viability, T/C [13] [%]","viability, T/C [14] [%]","viability, T/C [15] [%]",other results
CN(C)C/C=C/C(=O)Nc1cc2c(Nc3ccc(F)c(Cl)c3)ncnc2cc1O[C@H]1CCOC1 + CC1OCC2(CCN(c3cnc(Sc4ccnc(N)c4Cl)c(N)n3)CC2)C1N,> 100,51.1,86.2,24.4,> 100,62.1,54.8,53,48.3,69.8,44.7,28.3,34.8,50.1,49.2,–,–,–,–,–,"viability, T/C (second compound 0.1 µM, first compound 0.000316 µM): 99.4%; viability, T/C (second compound 0.1 µM, first compound 0.001 µM): 84.2%; viability, T/C (second compound 0.1 µM, first compound 0.00316 µM): 76.7%; viability, T/C (second compound 0.1 µM, first compound 0.01 µM): 55.3%; viability, T/C (second compound 0.316 µM, first compound 0.000316 µM): 99%; viability, T/C (second compound 0.316 µM, first compound 0.001 µM): 84.7%; viability, T/C (second compound 0.316 µM, first compound 0.00316 µM): 69.8%; viability, T/C (second compound 0.316 µM, first compound 0.01 µM): 52.9%; viability, T/C (second compound 1 µM, first compound 0.000316 µM): 105%; viability, T/C (second compound 1 µM, first compound 0.001 µM): 86.4%; viability, T/C (second compound 1 µM, first compound 0.00316 µM): 87.4%; viability, T/C (second compound 1 µM, first compound 0.01 µM): 64.9%; viability, T/C (second compound 3.16 µM, first compound 0.000316 µM): 124%; viability, T/C (second compound 3.16 µM, first compound 0.001 µM): 117%; viability, T/C (second compound 3.16 µM, first compound 0.00316 µM): 89.7%; viability, T/C (second compound 3.16 µM, first compound 0.01 µM): 124%; viability, T/C (second compound 10 µM, first compound 0.000316 µM): 110%; viability, T/C (second compound 10 µM, first compound 0.001 µM): 101%; viability, T/C (second compound 10 µM, first compound 0.00316 µM): 71.8%; viability, T/C (second compound 10 µM, first compound 0.01 µM): 60.9%"
COC(=O)c1ccc2c(C(=Nc3ccc(N(C)C(=O)CN4CCN(C)CC4)cc3)c3ccccc3)c(O)[nH]c2c1 + CC1OCC2(CCN(c3cnc(Sc4ccnc(N)c4Cl)c(N)n3)CC2)C1N,2590,2150,2120,2150,1470,79.8,88.5,82.5,102,106,104,101,120,94.8,94.8,108,114,40,1.22,110,"viability, T/C [16]: 113%; viability, T/C [17]: 23.6%; viability, T/C [18]: 0.76%; viability, T/C [19]: 111%; viability, T/C [20]: 95.6%; viability, T/C [21]: 25.5%; viability, T/C [22]: 0.47%; viability, T/C [23]: 103%; viability, T/C [24]: 99.2%; viability, T/C [25]: 25.4%; viability, T/C [26]: 0.29%; viability, T/C [27]: 83.7%; viability, T/C [28]: 72.2%; viability, T/C [29]: 6.64%; viability, T/C [30]: 2.18%"
O=C(c1cc(Cc2n[nH]c(=O)c3ccccc23)ccc1F)N1CCN(C(=O)C2CC2)CC1 + CC1OCC2(CCN(c3cnc(Sc4ccnc(N)c4Cl)c(N)n3)CC2)C1N,> 10000,> 10000,> 10000,> 10000,> 10000,83,79.6,83.8,85.8,75.8,78.2,96,98.6,85.3,85.6,75.8,69.6,73.5,84.1,84.1,"viability, T/C [16]: 74.8%; viability, T/C [17]: 66.2%; viability, T/C [18]: 69.5%; viability, T/C [19]: 81%; viability, T/C [20]: 76%; viability, T/C [21]: 71.9%; viability, T/C [22]: 75.9%; viability, T/C [23]: 88%; viability, T/C [24]: 75.9%; viability, T/C [25]: 78.3%; viability, T/C [26]: 72.1%; viability, T/C [27]: 61.5%; viability, T/C [28]: 70.3%; viability, T/C [29]: 70.8%; viability, T/C [30]: 63.9%"
